# Measured values taken from US12472174B2, “Bupropion dosage forms with reduced food and alcohol dosing effects” (ANTECIP BIOVENTURES II LLC, priority 2022, dated 2025).
# Where a name gives a salt, the structure may show the parent alone.
# Legend:
# [1] = powder; cited from earlier work
# [2] = tested on: patients with agitation associated with Alzheimer's disease; assay: Phase 2/3 randomized, double-blind, controlled clinical trial in agitation associated with Alzheimer's disease; type: in vivo, human
# Description: A Phase 2/3 randomized, double-blind, controlled, multicenter, U.S. clinical trial was conducted to evaluate the efficacy and safety of DM/BU in patients with agitation associated with Alzheimer's disease. A total of 366 patients with a diagnosis of probable Alzheimer's disease and clinically meaningful agitation associated with their disease were randomized, initially in a 1:1:1 ratio, to receive DM/BU (dextromethorphan/bupropion, dose escalated from 30 mg/105 mg once daily in the first week, to 30 mg/105 mg twice daily in the second week, to 45 mg/105 mg twice daily thereafter), bupropion (dose escalated from 105 mg once daily in the first week to 105 mg twice daily thereafter), or matching placebo, for 5 weeks. An independent data monitoring committee performed an interim futility analysis and recommended no further randomization to the bupropion arm. Subsequently, patients were randomized in a 1:1 ratio to receive DM/BU or placebo. Total patients randomized were 159, 49, and 158 to the DM/BU, bupropion, and placebo arms, respectively. The mean Cohen-Mansfield Agitation Inventory (CMAI) total scores at baseline were 60.8, 66.1, and 59.3, respectively for the DM/BU, bupropion, and placebo groups. The minimum score on the CMAI is 29, corresponding to the total absence of symptoms, with higher scores corresponding to greater agitation. The primary endpoint of the study was the change from baseline in the CMAI total score at Week 5. P-values were calculated based on least square mean estimates.
# Inclusion criteria included male or female […], diagnosis of probable Alzheimer's disease, according to the 2011 NIA-AA criteria, diagnosis of agitation, according to the IPA provisional definition of agitation, MMSE score between 10 and 24, an NPI-AA score ≥4, and community dwelling. Exclusion criterial included dementia of non-Alzheimer's type and current use of a selective serotonin reuptake inhibitor and/or a serotonin and norepinephrine inhibitor (SSRI/SNRI).
Compound,solubility in water [1],"mean reduction from baseline in CMAI total score ([2]; Week 5, primary endpoint, placebo 11.5, p=0.010)","Diarrhea ([2]; both, human, in vivo, 5 weeks)","Discontinuation due to AEs ([2]; both, human, in vivo, 5 weeks)","Dizziness ([2]; both, human, in vivo, 5 weeks)","Falls ([2]; both, human, in vivo, 5 weeks)","Fatigue ([2]; both, human, in vivo, 5 weeks)","Headache ([2]; both, human, in vivo, 5 weeks)","Insomnia ([2]; both, human, in vivo, 5 weeks)","Serious AEs ([2]; both, human, in vivo, 5 weeks)","Somnolence ([2]; both, human, in vivo, 5 weeks)","Subjects with any TEAE ([2]; both, human, in vivo, 5 weeks)","diarrhea, adverse event rate ([2]; both, human, in vivo, 5 weeks)","dizziness, adverse event rate ([2]; both, human, in vivo, 5 weeks)","rate of discontinuation due to adverse events ([2]; both, human, in vivo, 5 weeks)","serious adverse events, patients ([2]; both, human, in vivo, 5 weeks)","somnolence, adverse event rate ([2]; both, human, in vivo, 5 weeks)",deaths ([2]; one in the placebo arm)
"CC(NC(C)(C)C)C(=O)c1cccc(Cl)c1.Cl (racemic) [Bupropion hydrochloride, (±)-1-(3-chlorophenyl)-2-[(1,1-dimethylethyl)amino]-1-propanone hydrochloride]",highly soluble in water,,,,,,,,,,,,,,,,,
"CC(NC(C)(C)C)C(=O)c1cccc(Cl)c1 (stereo not shown) [Bupropion, bupropion]",,10.0 points,3 (6.1%) number of subjects (% of subjects),1 (2.0%) number of subjects (% of subjects),5 (10.2%) number of subjects (% of subjects),7 (14.3%) number of subjects (% of subjects),5 (10.2%) number of subjects (% of subjects),3 (6.1%) number of subjects (% of subjects),3 (6.1%) number of subjects (% of subjects),4 (8.2%) number of subjects (% of subjects),2 (4.1%) number of subjects (% of subjects),30 (61.2%) number of subjects (% of subjects),6.1%,10.2%,2.0%,8.2%,4.1%,one
"COc1ccc2c(c1)[C@]13CCCC[C@@H]1[C@H](C2)N(C)CC3 [Dextromethorphan hydrobromide, morphinan, 3-methoxy-17-methyl-, (9α, 13α, 14α), hydrobromide monohydrate]",sparingly soluble in water,,,,,,,,,,,,,,,,,
